In the OligoGym collection:
Several values for one entry are separate records, joined by “and”; a condition that tells them apart may be missing. Equal values may be shown once. HELM strings list units from the 5' end as sugar, base in round brackets, then linkage (d deoxyribose, r ribose, m 2'-O-methyl, p phosphodiester). Methylation of C is not given here. [moe] = 2'-O-(2-methoxyethyl) (MOE); [cEt] = constrained ethyl (cEt); [sp] = phosphorothioate linkage

Molecular target: HBV
Settings: ASO

With “RNA1{[moe](T)[sp].[moe](G)[sp].[moe](A)[sp].d(G)[sp].d(G)[sp].d(C)[sp].d(A)[sp].d(T)[sp].d(A)[sp].d(G)[sp].d(C)[sp].d(A)[sp].d(G)[sp].[cEt](C)[sp].[cEt](A)[sp].[cEt](G)}$$$$V2.0” the target mRNA inhibition (HepG2, 0.07 µM) was 59% and 61%.

“RNA1{[moe](C)[sp].[moe](C)[sp].d(G)[sp].d(C)[sp].d(A)[sp].d(G)[sp].d(T)[sp].d(A)[sp].d(T)[sp].d(G)[sp].d(G)[sp].[moe](A)[sp].[moe](T)[sp].[moe](C)[sp].[moe](G)[sp].[moe](G)[sp].[moe](C)}$$$$V2.0” was tested, and the target mRNA inhibition (HepG2, 0.07 µM) was 86% and 80%.

With “RNA1{[moe](A)[sp].[moe](A)[sp].[moe](G)[sp].[moe](C)[sp].[moe](G)[sp].d(A)[sp].d(A)[sp].d(G)[sp].d(T)[sp].d(G)[sp].d(C)[sp].d(A)[sp].d(C)[sp].d(A)[sp].[moe](C)[sp].[moe](G)}$$$$V2.0” the target mRNA inhibition (HepG2, 0.07 µM) was 71% and 68%.

For “RNA1{[moe](C)[sp].[moe](G)[sp].[moe](T)[sp].[moe](G)[sp].[moe](C)[sp].d(A)[sp].d(G)[sp].d(A)[sp].d(G)[sp].d(G)[sp].d(T)[sp].d(G)[sp].d(A)[sp].d(A)[sp].[moe](G)[sp].[moe](C)[sp].[moe](G)}$$$$V2.0”, the target mRNA inhibition (HepG2, 0.07 µM) was 74% and 63%.

“RNA1{[moe](G)[sp].[moe](A)[sp].[moe](G)[sp].d(G)[sp].d(T)[sp].d(G)[sp].d(A)[sp].d(A)[sp].d(G)[sp].d(C)[sp].d(G)[sp].d(A)[sp].[moe](A)[sp].[moe](G)[sp].[moe](T)[sp].[moe](G)[sp].[moe](C)}$$$$V2.0” was tested, and the target mRNA inhibition (HepG2, 0.07 µM) was 81% and 71%.

In the case of “RNA1{[moe](A)[sp].[moe](G)[sp].[moe](G)[sp].[moe](C)[sp].[moe](A)[sp].[moe](T)[sp].d(A)[sp].d(G)[sp].d(C)[sp].d(A)[sp].d(G)[sp].d(C)[sp].d(A)[sp].d(G)[sp].d(G)[sp].[moe](A)[sp].[moe](T)}$$$$V2.0”, the target mRNA inhibition (HepG2, 0.07 µM) is reported as 71% and 50%.

In the case of “RNA1{[moe](A)[sp].[cEt](A)[sp].[cEt](G)[sp].d(A)[sp].d(A)[sp].d(G)[sp].d(A)[sp].d(T)[sp].d(G)[sp].d(A)[sp].d(G)[sp].d(G)[sp].d(C)[sp].[cEt](A)[sp].[cEt](T)[sp].[moe](A)}$$$$V2.0”, the target mRNA inhibition (HepG2, 0.07 µM) is reported as 62% and 65%.

“RNA1{[moe](G)[sp].[moe](T)[sp].[moe](G)[sp].[moe](C)[sp].d(A)[sp].d(G)[sp].d(A)[sp].d(G)[sp].d(G)[sp].d(T)[sp].d(G)[sp].d(A)[sp].d(A)[sp].[moe](G)[sp].[moe](C)[sp].[moe](G)}$$$$V2.0” was tested, and the target mRNA inhibition (HepG2, 0.07 µM) was 64% and 63%.

For “RNA1{[moe](A)[sp].[moe](G)[sp].[moe](G)[sp].d(C)[sp].d(A)[sp].d(T)[sp].d(A)[sp].d(G)[sp].d(C)[sp].d(A)[sp].d(G)[sp].d(C)[sp].d(A)[sp].[cEt](G)[sp].[cEt](G)[sp].[cEt](A)}$$$$V2.0”, the target mRNA inhibition (HepG2, 0.07 µM) was 69% and 77%.

For “RNA1{[moe](G)[sp].[moe](A)[sp].[moe](A)[sp].d(G)[sp].d(T)[sp].d(C)[sp].d(C)[sp].d(A)[sp].d(C)[sp].d(C)[sp].d(A)[sp].d(C)[sp].[moe](G)[sp].[moe](A)[sp].[moe](G)[sp].[moe](T)[sp].[moe](C)}$$$$V2.0”, the target mRNA inhibition (HepG2, 0.07 µM) was 33% and 23%.

For “RNA1{[moe](A)[sp].[cEt](T)[sp].[cEt](G)[sp].d(A)[sp].d(G)[sp].d(G)[sp].d(C)[sp].d(A)[sp].d(T)[sp].d(A)[sp].d(G)[sp].d(C)[sp].d(A)[sp].[cEt](G)[sp].[cEt](C)[sp].[moe](A)}$$$$V2.0”, the target mRNA inhibition (HepG2, 0.0092593 µM) was 13%, the target mRNA inhibition (HepG2, 0.0277778 µM) was 14% and the target mRNA inhibition (HepG2, 0.07 µM) was 65% and 83%. It also gave a target mRNA inhibition (HepG2, 0.0833333 µM) of 55% and a target mRNA inhibition (HepG2, 0.25 µM) of 70%.

In the case of “RNA1{[moe](T)[sp].[moe](G)[sp].[moe](A)[sp].[moe](G)[sp].d(G)[sp].d(C)[sp].d(A)[sp].d(T)[sp].d(A)[sp].d(G)[sp].d(C)[sp].d(A)[sp].d(G)[sp].[moe](C)[sp].[moe](A)[sp].[moe](G)}$$$$V2.0”, the target mRNA inhibition (HepG2, 0.07 µM) is reported as 56% and 53%.

For “RNA1{[moe](A)[sp].[moe](C)[sp].[moe](C)[sp].[moe](A)[sp].[moe](A)[sp].[moe](T)[sp].d(T)[sp].d(T)[sp].d(A)[sp].d(T)[sp].d(G)[sp].d(C)[sp].d(C)[sp].d(T)[sp].d(A)[sp].[moe](C)[sp].[moe](A)}$$$$V2.0”, the target mRNA inhibition (HepG2, 0.07 µM) was 5% and 18%.

“RNA1{[moe](G)[sp].[moe](A)[sp].[moe](G)[sp].[moe](G)[sp].[moe](C)[sp].d(A)[sp].d(T)[sp].d(A)[sp].d(G)[sp].d(C)[sp].d(A)[sp].d(G)[sp].d(C)[sp].d(A)[sp].[moe](G)[sp].[moe](G)}$$$$V2.0” was tested, and the target mRNA inhibition (HepG2, 0.07 µM) was 44% and 39%.

For “RNA1{[moe](T)[sp].[moe](A)[sp].d(T)[sp].d(G)[sp].d(C)[sp].d(C)[sp].d(T)[sp].d(A)[sp].d(C)[sp].d(A)[sp].d(G)[sp].[moe](C)[sp].[moe](C)[sp].[moe](T)[sp].[moe](C)[sp].[moe](C)}$$$$V2.0”, the target mRNA inhibition (HepG2, 0.07 µM) was 54% and 55%.

“RNA1{[moe](A)[sp].[moe](G)[sp].d(T)[sp].d(T)[sp].d(C)[sp].d(C)[sp].d(G)[sp].d(C)[sp].d(A)[sp].d(G)[sp].d(T)[sp].[moe](A)[sp].[moe](T)[sp].[moe](G)[sp].[moe](G)[sp].[moe](A)[sp].[moe](T)}$$$$V2.0” was tested, and the target mRNA inhibition (HepG2, 0.07 µM) was 68% and 70%.

“RNA1{[moe](C)[sp].[moe](G)[sp].[moe](G)[sp].d(G)[sp].d(C)[sp].d(A)[sp].d(A)[sp].d(C)[sp].d(A)[sp].d(T)[sp].d(A)[sp].d(C)[sp].d(C)[sp].[cEt](T)[sp].[cEt](T)[sp].[cEt](G)}$$$$V2.0” was tested, and the target mRNA inhibition (HepG2, 0.07 µM) was 56% and 65%.

“RNA1{[moe](T)[sp].[moe](G)[sp].d(A)[sp].d(G)[sp].d(G)[sp].d(C)[sp].d(A)[sp].d(T)[sp].d(A)[sp].d(G)[sp].d(C)[sp].[moe](A)[sp].[moe](G)[sp].[moe](C)[sp].[moe](A)[sp].[moe](G)[sp].[moe](G)}$$$$V2.0” was tested, and the target mRNA inhibition (HepG2, 0.07 µM) was 73% and 72%.

“RNA1{[moe](A)[sp].[moe](C)[sp].[moe](T)[sp].d(G)[sp].d(G)[sp].d(A)[sp].d(G)[sp].d(C)[sp].d(C)[sp].d(A)[sp].d(C)[sp].d(C)[sp].[moe](A)[sp].[moe](G)[sp].[moe](C)[sp].[moe](A)[sp].[moe](G)}$$$$V2.0” was tested, and the target mRNA inhibition (HepG2, 0.07 µM) was 67% and 65%.

With “RNA1{[moe](G)[sp].[cEt](A)[sp].[cEt](G)[sp].d(T)[sp].d(T)[sp].d(C)[sp].d(C)[sp].d(G)[sp].d(C)[sp].d(A)[sp].d(G)[sp].d(T)[sp].d(A)[sp].[cEt](T)[sp].[cEt](G)[sp].[moe](G)}$$$$V2.0” the target mRNA inhibition (HepG2, 0.07 µM) was 83% and 76%.

For “RNA1{[moe](C)[sp].[moe](G)[sp].[moe](C)[sp].[moe](A)[sp].[moe](G)[sp].d(T)[sp].d(A)[sp].d(T)[sp].d(G)[sp].d(G)[sp].d(A)[sp].d(T)[sp].d(C)[sp].d(G)[sp].[moe](G)[sp].[moe](C)[sp].[moe](A)}$$$$V2.0”, the target mRNA inhibition (HepG2, 0.07 µM) was 56% and 57%.

With “RNA1{[moe](A)[sp].[moe](G)[sp].[moe](A)[sp].d(T)[sp].d(G)[sp].d(A)[sp].d(G)[sp].d(G)[sp].d(C)[sp].d(A)[sp].d(T)[sp].d(A)[sp].d(G)[sp].[cEt](C)[sp].[cEt](A)[sp].[cEt](G)}$$$$V2.0” the target mRNA inhibition (HepG2, 0.07 µM) was 50% and 70%.

With “RNA1{[moe](A)[sp].[moe](G)[sp].d(A)[sp].d(T)[sp].d(G)[sp].d(A)[sp].d(G)[sp].d(G)[sp].d(C)[sp].d(A)[sp].d(T)[sp].[moe](A)[sp].[moe](G)[sp].[moe](C)[sp].[moe](A)[sp].[moe](G)}$$$$V2.0” the target mRNA inhibition (HepG2, 0.07 µM) was 62% and 46%.

With “RNA1{[moe](A)[sp].[moe](C)[sp].[moe](G)[sp].d(T)[sp].d(G)[sp].d(C)[sp].d(A)[sp].d(G)[sp].d(A)[sp].d(G)[sp].d(G)[sp].d(T)[sp].[moe](G)[sp].[moe](A)[sp].[moe](A)[sp].[moe](G)[sp].[moe](C)}$$$$V2.0” the target mRNA inhibition (HepG2, 0.07 µM) was 79% and 72%.

With “RNA1{[moe](C)[sp].[moe](A)[sp].[moe](G)[sp].[moe](A)[sp].[moe](G)[sp].d(G)[sp].d(T)[sp].d(G)[sp].d(A)[sp].d(A)[sp].d(G)[sp].d(C)[sp].d(G)[sp].d(A)[sp].[moe](A)[sp].[moe](G)}$$$$V2.0” the target mRNA inhibition (HepG2, 0.07 µM) was 60% and 57%.

“RNA1{[moe](A)[sp].[moe](G)[sp].d(G)[sp].d(T)[sp].d(G)[sp].d(A)[sp].d(A)[sp].d(G)[sp].d(C)[sp].d(G)[sp].d(A)[sp].[moe](A)[sp].[moe](G)[sp].[moe](T)[sp].[moe](G)[sp].[moe](C)[sp].[moe](A)}$$$$V2.0” was tested, and the target mRNA inhibition (HepG2, 0.07 µM) was 72% and 69%.

“RNA1{[moe](G)[sp].[moe](G)[sp].d(T)[sp].d(G)[sp].d(A)[sp].d(A)[sp].d(G)[sp].d(C)[sp].d(G)[sp].d(A)[sp].d(A)[sp].[moe](G)[sp].[moe](T)[sp].[moe](G)[sp].[moe](C)[sp].[moe](A)}$$$$V2.0” was tested, and the target mRNA inhibition (HepG2, 0.07 µM) was 65% and 62%.

In the case of “RNA1{[moe](G)[sp].[moe](A)[sp].[moe](G)[sp].d(T)[sp].d(T)[sp].d(C)[sp].d(C)[sp].d(G)[sp].d(C)[sp].d(A)[sp].d(G)[sp].d(T)[sp].[moe](A)[sp].[moe](T)[sp].[moe](G)[sp].[moe](G)}$$$$V2.0”, the target mRNA inhibition (HepG2, 0.07 µM) is reported as 54% and 30%.

“RNA1{[moe](T)[sp].[moe](G)[sp].[moe](A)[sp].[moe](A)[sp].d(G)[sp].d(C)[sp].d(G)[sp].d(A)[sp].d(A)[sp].d(G)[sp].d(T)[sp].d(G)[sp].d(C)[sp].[moe](A)[sp].[moe](C)[sp].[moe](A)[sp].[moe](C)}$$$$V2.0” was tested, and the target mRNA inhibition (HepG2, 0.07 µM) was 62% and 51%.

For “RNA1{[moe](C)[sp].[cEt](C)[sp].[cEt](G)[sp].d(C)[sp].d(A)[sp].d(G)[sp].d(T)[sp].d(A)[sp].d(T)[sp].d(G)[sp].d(G)[sp].d(A)[sp].d(T)[sp].[cEt](C)[sp].[cEt](G)[sp].[moe](G)}$$$$V2.0”, the target mRNA inhibition (HepG2, 0.07 µM) was 63% and 52%.

For “RNA1{[moe](G)[sp].[moe](C)[sp].[moe](A)[sp].[moe](C)[sp].[moe](T)[sp].d(A)[sp].d(G)[sp].d(T)[sp].d(A)[sp].d(A)[sp].d(A)[sp].d(C)[sp].d(T)[sp].d(G)[sp].[moe](A)[sp].[moe](G)[sp].[moe](C)}$$$$V2.0”, the target mRNA inhibition (HepG2, 0.07 µM) was 58% and 63%.

With “RNA1{[moe](A)[sp].[moe](G)[sp].d(A)[sp].d(G)[sp].d(G)[sp].d(T)[sp].d(G)[sp].d(A)[sp].d(A)[sp].d(G)[sp].d(C)[sp].[moe](G)[sp].[moe](A)[sp].[moe](A)[sp].[moe](G)[sp].[moe](T)}$$$$V2.0” the target mRNA inhibition (HepG2, 0.07 µM) was 40% and 48%.
